Several values for one entry are separate records, joined by “and”; a condition that tells them apart may be missing. Identical values can stand only once.

The experiment deals with 743489-274-T-PDC complex spheroid viability. Put plainly: Anticancer human tumor 743489-274-T-PDC patient-derived renal cell carcinoma cell line growth inhibition. As to conditions: for viability, T/C: stronger effect = lower value. An excerpt:
Multicellular complex tumor spheroid response to LSD1 Inhibitor Iadademstat in combination with a variety of drugs and investigational agents in selected tumor cell lines
The current study was undertaken to assess response to LSD1 inhibitors in combination with standard-of-care drugs and investigational agents in solid tumor complex spheroid models as well as in the K-562 leukemia. Complex spheroids include a stromal component modeled by human endothelial cells (HUVEC) and fibroblasts modeled by human mesenchymal stem cells (MSCs). The concentration ranges selected for each drug and investigational agent were based upon clinically achievable concentrations if the clinical Cmax of the agent was known.
Compounds. The drugs and investigational agents used in this study are listed on Table 1. All of the agents used, including staurosporine (NSC755774) and gemcitabine (NSC613327), were obtained from the Developmental Therapeutics Program, NCI. FDA-approved anticancer drugs are available from the NCI at http://dtp.nci.nih.gov/branches/dscb/oncology_drugset_explanation.html. Drugs and investigational agents were >95% pure by proton nuclear magnetic resonance (NMR) and liquid chromatography/mass spectrometry (LC/MS). Stock solutions were prepared at 400x in DMSO, stored at -70 degrees C, and diluted in fresh medium prior to their use. The final concentration of DMSO in cell culture wells never exceeded 0.25% (v/v). The FDA-approved anticancer drug set is available from the Developmental Therapeutics Program at https://dtp.cancer.gov/organization/dscb/obtaining/available_plates.htm. All drugs and investigational agents were tested over a range starting from a high concentration at or near the clinical Cmax and decreasing in half-log increments. If the clinical Cmax for an agent had not been determined, the highest concentration tested was 10 microM.
Cell Lines. The patient-derived cancer cell (PDC) lines: 292921-168-R-J2-PDC, K24384-001-R-PDC, and 521955-158-R2-J5-PDC pancreatic carcinomas, 556581-035-R-J1 ovarian carcinoma, 324938-238-R-J1-PDC, 855422-203-R-J1-PDC and 883617-216-R-J1-PDC urothelial bladder carcinomas, 743489-274-T-PDC renal cell carcinoma, 138582-R-J1 Merkel cell tumor, K60290-347-R-J1 and K57222-313-R-J1-PDC glioblastomas, 653999-131-R-J2-PDC, LG0703-F948-PDC, and 349418-098-R-PDC non-small cell lung carcinomas, 885512-296-R-J2-PDC, 171881-019-R-J1-PDC breast carcinomas and 186277-243-T-J2-PDC and 233499-124-R-J2-PDC colon carcinomas were obtained from the NCI Patient-Derived Models Repository (PDMR, https://pdmr.cancer.gov). The established cell lines NCI/ADR-RES (RRID:CVCL_14520 and OVCAR-5 (RRID:CVCL_1628) ovarian carcinomas, 786-O (RRID:CVCL_1051) and A498 (RRID:CVCL_A498) renal cell carcinoma, NCI-H211 (ATCC, cat. CRL-5824; RRID:CVCL_1529), NCI-H196 (ATCC, cat. CRL-5823, RRID:CVCL_1509), SW 1271 (ATCC, cat. CRL-2177, RRID:CVCL_1716) and NCI-H1876 (ATCC, cat. CRL-5902, RRID:CVCL_1503) small cell lung carcinomas, MDA-MB-231 (RRID:CVCL_0062) and MDA-MB-468 (RRID:CVCL_0419)breast carcinomas (10-12). Pooled donor human umbilical vein endothelial cells (HUVEC, Lonza, cat. CC-2519) and human mesenchymal stem cells (hMSC, Lonza, cat. PT-2501) were purchased from Lonza (Walkersville, MD).
Cell Culture. All cells were maintained in an incubator at 37 degrees C and 5% CO2 with 95% humidity. The PDC lines were cultured according to standard operating procedures established by the NCI PDMR (https://pdmr.cancer.gov). Briefly all PDCs were thawed and cultured in Matrigel-coated flasks prepared with a working solution of 1X Ham's F-12 nutrient mix, without supplementation (Invitrogen, Waltham, MA, cat. 11765054), 100 U/mL penicillin-streptomycin (Invitrogen, cat. 15140122), and 2.5% Matrigel (Corning Inc., Corning, NY, cat. 354248) for the first three passages. […]
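Also: spheroids exposed to compounds for 7 days before readout.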

One may read the viability, T/C as the result in the treated group divided by that in the control group, in per cent. One may read the IC50 as the concentration needed to halve the response being measured. On to `CC(C)c1c(-c2ccccc2)nc2c(C#N)c[nH]n2c1=O`, for which the viability, T/C is, setting by setting: (compound 0.0316 µM) 106% and 94.8%; (compound 0.1 µM) 100% and 102%; (compound 0.316 µM) 86.4% and 102%; (compound 1 µM) 96% and 107%; (compound 3.16 µM) 93.2% and 93.5%. Besides, the half-inhibitory concentration (IC50) (curve of compound) was above 10 µM.
In the case of `CC1COCCN1c1cc(C2(S(C)(=N)=O)CC2)nc(-c2ccnc3[nH]ccc23)n1` (centres undefined), the viability, T/C runs as follows: (compound 0.0316 µM) 93.4% and 107%; (compound 0.1 µM) 112% and 104%; (compound 0.316 µM) 99.9% and 87%; (compound 1 µM) 93.9% and 91.4%; (compound 3.16 µM) 100% and 90.3%; (compound 10 µM) 81.3% and 63.8%. Besides, the IC50 (curve of compound) was above 10 µM.
With `COc1ccc([C@@H](O)c2cc(-c3ncnc4cc(N5CCOCC5)ccc34)c(F)cc2Cl)nn1`, the viability, T/C by setting is: (compound 0.0316 µM) 108% and 93.4%; (compound 0.1 µM) 100% and 95.8%; (compound 0.316 µM) 90.5% and 72.5%; (compound 1 µM) 59.4% and 43.6%; (compound 3.16 µM) 38.7% and 21.3%; (compound 10 µM) 20.8% and 19.4%. The IC50 (curve of compound) was 1.73 µM and 0.753 µM.
Consider `NC1CC1c1ccc(-c2cccc(O)c2)cc1` (centres undefined), for which the viability, T/C (compound 0.316 µM) is 103% [middle of 25 runs]. Besides, the IC50 (compound alone, run of 12/07/2021) was above 10 µM.
For the molecule `NC1CCC(NC2CC2c2ccccc2)CC1` (centres undefined), the viability, T/C (compound 0.316 µM) is 105% and 107%. For the same molecule, the IC50 (compound alone, run of 11/29/2021) was above 10 µM.

These data come from PubChem BioAssay AID1918942 (Molecular Pharmacology Branch, DTP, NCI, 2023).
